We go through 6 substances from patent US20040170653A1, “Tumour peptide antigen produced from human mdm2 proto-oncogene” (priority 2001, published 2004).

In test [1] the target is HLA-A2.1 (Homo sapiens, UniProt P04439, D140Y/D185E/D98H/E176V/E277Q/G131W/G231S/I119V/I121R/I166T/I218V/L300P/L318F/N151K/N90K/P208A/P217A/Q86G/Q94H/R138H/R169H/T345S). Briefly: Competition test: inhibition of A2.1 binding of peptide p53 264-272, read as p53-specific CTL lysis of loaded EA2 cells. As to conditions: for inhibition of the A2.1 binding of the competing peptide p53 264-272: EA2 cells with 0.01 μg p53 264-272, 4-hour test; for A2.1-binding activity (in words): competitive binding test.

Test [2] deals with T2 cells. Description: Cytotoxicity test (51Cr release) of hdm2 81-88-specific CTL on peptide-loaded T2 target cells (peptide titration, peptide specificity). As to conditions: for absolute maximal lysis: peptide titration. The format is cell-based, human.
In test [3] the test system is A2K^b- and CD8×A2K^b transgenic mice. Description: A2.1-restricted immunogenicity of synthetic peptides after immunization; cytotoxicity test of induced CTL on peptide-loaded T2A2K^b cells. The format is in vivo, mouse. To be noted: peptide immunization in IFA, in vitro stimulation, 4-hour cytotoxicity test.
In test [4] the test system is resting T cells. Briefly: CTL recognition of resting lymphohemopoietic cells, 6-hour cytotoxicity test. As to conditions: cells loaded with peptide 10 μM. The format is cell-based.
Test [5] relates to PBMC. The description is as above. The format is cell-based. To be noted: cells loaded with peptide 10 μM.
In test [6] the test system is mature DC. Description: CTL recognition of activated mature dendritic cells, 6-hour cytotoxicity test. Type of test: cell-based. As to conditions: cells loaded with peptide 10 μM.
For test [7], the system named is resting B cells. Briefly: CTL recognition of resting lymphohemopoietic cells, 6-hour cytotoxicity test. To be noted: cells loaded with peptide 10 μM. Type of test: cell-based.
Test [8] deals with tyrosinase-specific CTL clone IVSB. Description: CTL recognition of antigen-activated T cells, 6-hour cytotoxicity test. To be noted: cells loaded with peptide 10 μM. Type of test: cell-based, human. As to the method: FIG. 22: Absence of substantial recognition of antigen-activated T cells. CTL A2 81, CTL CD8×A2 K^b 81, allo-A2.1-reactive CTL and CTL CD8×A2 K^b Flu M1 were tested as effector cells under the E:T ratios indicated in a 6-hour cytotoxicity test against tyrosinase-specific CTL clone IVSB (●) and the same cells loaded with hdm2 81-88 peptide (10 μM) (▴). The target cells were treated with the anti-A2.1 monoclonal antibody PA2.1 as shown (∘).
An A2.1-positive CTL clone “IVSB” having specificity for the tyrosinase peptide 369-377 was produced and made available using technically customary methods.
The lytic reactivity of the effector cells against various target cells was checked in a ^51Cr release test (Theobald et al., 1995). T2 and T2A2 K^b cells were employed as target cells for peptide titration tests. 1-5 Mio target cells were labeled for 60-90 min with 150 μCi of Na (^51Cr) 04 (1 mCi/ml) (NEN Life Science, Belgium). […] The cells were then centrifuged off (1300 rpm, 5° C., 9 min), the supernatant (0.1 ml/well) was taken off and the ^51Cr release was measured using a gamma-“counter” (Canberra Packard, Dreieich). The percentage specific lysis (SL) was calculated according to the following formula: [formula] […]

The test system of test [9] is EL4 cells (H-2^b). Briefly: Cytotoxicity test of hdm2 81-88-specific CTL on peptide-loaded A2.1-negative EL4 cells (A2.1 restriction). The format is cell-based, mouse.

Read-outs that look alike come from different tables or passages of the source.

For the substance “tyrosinase 369-377: A2.1-binding peptide tyrosinase 369-377, positive control [reference compound]”, the “inhibition of the A2.1 binding of the competing peptide p53 264-272” value (from here on “inhibition”) in test [1] (3 μg test peptide) and in [1] (10 μg test peptide) was 100% throughout.

Turning to “hdm2 48-57: synthetic hdm2 peptide, residues 48-57 (YTMKEVLFYL; UniProt Q00987 48-57, looked up, fragment)”, in test [1] (10 μg test peptide), the “inhibition” value amounted to 100%.

As for “hdm2 80-88: synthetic hdm2 peptide, residues 80-88; contaminated with hdm2 81-88 (DLLGDLFGV; UniProt Q00987 80-88, looked up, fragment)”, the “recognition of HPLC-purified peptide by hdm2 81-88-specific CTL” value in test [2] (HPLC fraction 23, T2 cells, CTL CD8×A2 K^b 81, E:T 20:1) is reported as “cross-reactivity”. Also, in [1] (10 μg test peptide), the “inhibition” value is given as 100%. The “A2.1-binding activity (in words)” value in test [1] is “strongly binding”. In addition, the “A2.1-restricted and peptide-specific CTL response” value in [3] is reported as “demonstrated”.

Consider “hdm2 101-110: intermediately binding synthetic hdm2 peptide, residues 101-110 (TMIYRNLVVV; UniProt Q00987 101-110, looked up, fragment)”, for which the “A2.1-binding activity (in words)” value in test [1] is “intermediately binding”. In addition, the “A2.1-restricted and peptide-specific CTL response” value in test [3] is on record as “demonstrated”.

Regarding “LLGDLFGV [hdm2 81-88, oligopeptide, amino acid positions 81 to 88 of the hdm2 proto-oncoprotein]”, the “CTL recognition after loading with exogenous peptide” value in test [4], in [5] and in test [7] was “reconstituted” in each case. For the same substance, the EC50 in test [2] (CTL line A2 81, E:T 10:1, 4-hour test, read-out: peptide concentration at half-maximal lysis of the target cells) was found to be 69 pM; in test [2] (CTL line CD8×A2K^b 81, E:T 10:1, 4-hour test, read-out: peptide concentration at half-maximal lytic activity), 36 pM; in test [2] (I° CTL A2 81, 6-hour test, read-out: peptide concentration at half-maximal lysis of the target cells) it was 950 pM; in [2] (I° CTL CD8×A2 K^b 81, 6-hour test, read-out: peptide concentration at half-maximal lysis of the target cells), 200 pM. In addition, in test [2] (CTL lines A2 81 and CD8×A2 K^b 81, 4-hour test), the “lysis of peptide-loaded T2 cells by both hdm2 81-88-specific CTL lines” value is on record as “lyzed efficiently”. The figures for the absolute maximal lysis in test [2] (I° CTL A2 81) and in test [2] (I° CTL CD8×A2 K^b 81) were 62% and 100%, respectively. Besides, in test [1] (10 μg test peptide), the “inhibition” value came out at 100%. In test [1], the “A2.1-binding activity (in words)” value is “strongly binding”. The “CTL lysis after loading with exogenous peptide” value is on record as “reconstituted” in test [6] and “reconstitute” in [8]. Also, the “A2.1-restricted and peptide-specific CTL response” value in test [3] was “demonstrated”. Moreover, in [9] (CTL from immunized A2K^b- or CD8×A2K^b-transgenic mice, 2 μg peptide), the “recognition of peptide-loaded EL4 cells by CTL induced by hdm2 81-88” value was “not recognized”. Moreover, in test [9] (CTL lines A2 81 and CD8×A2 K^b 81), the “lytic activity of hdm2 81-88-reactive CTL lines on peptide-loaded EL4 cells” value is recorded as “no lytic activity at all”.

For the substance “hdm2 33-41: synthetic hdm2 peptide, residues 33-41 (LLLKLLKSV; UniProt Q00987 33-41, looked up, fragment)”, the “inhibition” value in [1] (10 μg test peptide) is on record as 100%. Further, in test [1], the “A2.1-binding activity (in words)” value is listed as “strongly binding”. Also, the “A2.1-restricted and peptide-specific CTL response” value in test [3] is on record as “demonstrated”.
